{"source": "patent US20060204502A1", "about": "(priority 2004, published 2006)", "key": {"A375 cells": {"test_system": "A375 cells", "experiment": "Flow cytometry cell cycle (G2/M) and apoptosis (sub-G1) analysis, A375", "assay_type": "cell-based, human", "details": "Homo sapiens, A-375, read-out: SEC50", "experimental": "Flow Cytometry Analysis: A375 and NCTC2544 adherent cells were trypsinized, mixed with floating cells, washed with PBS and permeabilised in 70% (vol/vol) ethanol/PBS solution at 4° C. for at least 24 hours. Jurkat, HeL023 and PBMC cells were centrifuged for 10 minutes at 1000×g. The cell pellet was then resuspended and permeabllised in 70% (vol/vol) ethanol/PBS solution at 4° C. for at least 24 hours. The cells were washed with PBS and the DNA was stained with a PBS solution, containing 20 μg/ml of propidium iodide and 100 μg/ml of RNAse, at room temperature for 30 minutes. Cells were analysed by FACScan (Becton-Dickinson) and the content of DNA was evaluated by the Cell-LISYS program (Becton-Dickinson). Cell distribution among cell cycle phases and apoptotic cells was evaluated as previously described (Secchiero et al., 2001). Briefly, the cell cycle distribution is shown as the percentage of cells containing 2n (G1 phase), 4n (G2 and M phases), 4n>x>2n. DNA amount (S phase) judged by propidium iodide staining. The apoptotic population is the percentage of cells with DNA content lower than 2n.\nAfter 24 hours, cells were collected for flow cytometry analysis. PD 98059 was used at 20 uM as an inhibitor of MEK to prevent MEK-1 activation. […]\nEC50 values were obtained by analysing G2/M accumulation dose response curve. ECMAX values were obtained by analysing sub-G1 accumulation dose response curve. Paclitaxel values have units of ng/ml."}, "Human Melanoma A375": {"test_system": "Human Melanoma A375", "experiment": "MTT growth inhibitory assay, A375", "details": "A375 cells", "quoted_text": "An exemplary assay may comprise the following steps: Cells (1000-1500 cells/well) are seeded in a 96-well micro culture plate in a total volume of 100 μl/well. After overnight incubation in a humidified incubator at 37° C. with 5% CO2-95% air, chemotherapeutic drug solutions diluted with culture medium at various concentrations are added in the amount of 100 μl to each well. The plates are placed in a humidified incubator at 37° C. with 5% CO2-95% air for 7-10 days. The plates are then centrifuged briefly and 100 μl of the growth medium is removed. Cell cultures are incubated with 50 μl of MTT [3-(4,5-dimethylthiazol-2-yl)-2,5-diphenyl-tetrazolium bromide] reagent (1 mg/ml in Dulbecco's phosphate-buffered saline) for 4 hr at 37° C. The resultant purple formazan precipitate is solubilized with 200 μl of 0.04 N HCl in isopropanol. Absorbance is measured at a wavelength of 595 nm and at a reference wavelength of 655 nm using a Bio-Rad Model 3550 Microplate Reader. Preferably, all tests are run in duplicate for each dose level. […] The EZED50 computer program estimates the concentration of agent that inhibits cell growth by 50% as compared to the control cells. This is termed the IC50 and is determined by curve fitting test data using the following four logistic equation. [formula]\nIf testing concentrations are properly selected (i.e., no or little growth inhibition at low concentrations and complete inhibition at high concentrations), EZED50 program fits the data extremely well and estimates the IC50 value accurately. […] In these instances, the data could be re-analyzed by fixing the Amax value.\nIn this case, the IC50 could be estimated more accurately if both the Amax and Amin values are fixed. Although it may be feasible to estimate IC50 value by fixing Amax and/or Amax and Amin without repeating the experiment, the best way to determine the IC50 accurately is to decrease or increase the concentrations of the test agent and repeat the test.\nInhibitory assay testing is also used to determine enhanced therapeutic effects from combining A3 receptor antagonists with other tumor inhibiting agents. The inhibitory cell growth assays are run with and without selected concentrations of A3 receptor antagonists. An enhanced therapeutic effect is present when the IC50 of the tumor inhibiting agent is lower with the A3 receptor antagonist.\nQuantitatively, the enhancement factor (EF) is calculated by dividing the IC50 value of the tumor inhibiting agent for a tumor cell line by the IC50 value of the agent with A3 receptor antagonist for the same cell line: [formula]\nInterpretation of the EF is dependent upon the concentrations of A3 receptor antagonist tested. For example, when using very low concentrations of A3 receptor antagonist, any EF above 1.0 is synergistic if the A3 receptor antagonist concentration is below the threshold of cell growth inhibition.\nThe cells are cultured in a T25 Falcon Tissue Culture flask in a humidified incubator at 37° C. with 5% CO2-95% air. The cells are sub-cultured twice a week.\nAll other agents were dissolved in 100% DMSO at appropriate concentrations."}}, "note": "Several values for one entry are separate records, joined by “and”; a condition that tells them apart may be missing. Identical values can stand only once."}
{"smiles": "CCCn1cc2c(nc(NC(=O)Nc3ccc(OC)cc3)n3nc(-c4ccco4)nc23)n1", "note": "[MRE3008F20, 5-[[(4-Methoxyphenyl)amino]carbonyl]amino-8-propyl-2-(2-furyl)-pyrazolo[4,3-e]1,2,4-triazolo[1,5-c]pyrimidine]", "values": [{"measurement": "EC50", "setting": "A375 cells", "value": "550 ± 60", "unit": "nM"}, {"measurement": "Enhancement Factor", "setting": "Human Melanoma A375; enhancement of docetaxel IC50, A3 antagonist at 3 μg/ml", "value": 6.9}, {"measurement": "Enhancement Factor", "setting": "Human Melanoma A375; enhancement of docetaxel IC50, A3 antagonist at 10 μg/ml", "value": 5.3}, {"measurement": "Enhancement Factor", "setting": "Human Melanoma A375; enhancement of paclitaxel IC50, A3 antagonist at 1 μg/ml", "value": 7.1}, {"measurement": "Enhancement Factor", "setting": "Human Melanoma A375; enhancement of paclitaxel IC50, A3 antagonist at 3 μg/ml", "value": 6.4}, {"measurement": "Enhancement Factor", "setting": "Human Melanoma A375; enhancement of paclitaxel IC50, A3 antagonist at 10 μg/ml", "value": "7.1 and 8.5"}, {"measurement": "Enhancement Factor", "setting": "Human Melanoma A375; enhancement of paclitaxel, at all three concentrations (1, 3, and 10 μg/ml)", "value": "6.4-7.1"}]}
